Test results published in ChEMBL document CHEMBL5241086, “Research progress of indole compounds with potential antidiabetic activity” (Eur J Med Chem, 2021).
Converted amounts (≈) assume the structure as drawn. Each block holds one molecule with its values, some of them ahead of it.

Tests used:
[1] = target: T1, Alpha glucosidase (Homo sapiens, UniProt O43451+P10253+P14410+Q2M2H8); assay: Inhibition of alpha glucosidase (unknown origin) using p-nitrophenyl glucopyranoside as substrate preincubated for 15 mins followed by substrate addition and measured after 30 mins by spectrophotometer analysis; type: protein assay
[2] = system: Mus musculus; assay: Antidiabetic activity in mouse assessed as reduction in blood glucose level at 100 mg/kg, po bid measured up to 21 days; type: functional; parameters: scale not given: the % may be the effect or the level left; conditions: time <= 21 day
[3] = target: T1, Alpha glucosidase; assay: Inhibition of alpha glucosidase (unknown origin) using p-nitrophenyl glucopyranoside as substrate by multimode plate reader analysis; type: protein assay
[4] = target: Aldo-keto reductase family 1 member B1 (Homo sapiens) (UniProt P15121); assay: Inhibition of Aldose reductase (unknown origin) using DL-Glyceraldehyde as substrate incubated for 5 mins in presence of NADPH by spectrophotometer analysis
[5] = species: Homo sapiens; assay: Inhibition of beta-glucosidase (unknown origin) assessed as residual activity at 100 uM […] incubated for 1 hr followed by substrate addition and measured after 5 mins by spectrophotometer analysis relative to control; conditions: time 65.0 hrs
[6] = target: T1, Alpha glucosidase; assay: Inhibition of alpha glucosidase (unknown origin) using p-nitrophenyl glucopyranoside as substrate by UV based microplate reader analysis; type: protein assay
[7] = target: T2, Glucose-dependent insulinotropic receptor (Homo sapiens, UniProt Q8TDV5); assay: Agonist activity at human GPR119 incubated for 2 hrs by luciferase reporter gene assay
T2 sequence (Q8TDV5 whole entry): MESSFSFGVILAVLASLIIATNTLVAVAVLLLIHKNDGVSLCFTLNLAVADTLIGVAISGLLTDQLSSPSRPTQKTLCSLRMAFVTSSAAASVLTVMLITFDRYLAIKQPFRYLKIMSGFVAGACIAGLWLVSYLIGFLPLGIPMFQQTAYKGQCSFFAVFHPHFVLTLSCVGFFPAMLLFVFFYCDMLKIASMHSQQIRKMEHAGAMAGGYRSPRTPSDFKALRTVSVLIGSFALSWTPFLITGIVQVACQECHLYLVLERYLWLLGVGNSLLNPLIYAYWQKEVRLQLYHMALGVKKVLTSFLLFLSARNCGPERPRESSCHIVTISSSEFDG

[8] = target: T1, Alpha glucosidase; assay: Inhibition of alpha glucosidase (unknown origin) using p-nitrophenyl glucopyranoside as substrate by UV Vis- spectrophotometer analysis; type: protein assay

Structure (SMILES): O=C1Nc2ccccc2C1(c1cn(Cc2ccccc2F)c2ccccc12)c1cn(Cc2ccccc2F)c2ccccc12
- IC50 [1]: 5.98 µM

Structure (SMILES): O=C1Nc2ccccc2/C1=N/NC(=S)N/N=C/c1ccc(Cl)cc1
- Activity [2]: 29.6%

Structure (SMILES): O=[N+]([O-])c1cc(-c2cc3ccccc3[nH]2)ccc1Cl
- inhibition [4]: 5.3%

Structure (SMILES): COC(=O)[C@H](Cc1c[nH]c2ccccc12)NC(=O)c1cccc([N+](=O)[O-])c1
- Activity [5]: 37%

Structure (SMILES): Cc1cccc(NC(=O)CSc2nnc(CCCc3c[nH]c4ccccc34)o2)c1C
- IC50 [6]: 9.46 µM

Structure (SMILES): Nc1ccc(-c2cc3ccccc3[nH]2)cc1
- inhibition [4]: 11%

Structure (SMILES): Cc1ccnc(NC(=O)CSc2nnc(CCCc3c[nH]c4ccccc34)o2)c1
- IC50 [6]: 9.37 µM

Structure (SMILES): CCc1cnc(N2CCC(C(C)COC(=O)N3CCc4cc(S(C)(=O)=O)ccc43)CC2)nc1 (configuration not stated)
- EC50 [7]: 0.0039 µM

Structure (SMILES): Brc1ccc(-c2csc(-n3nc(-c4ccccc4)cc3-c3c[nH]c4ccccc34)n2)cc1
- IC50 [8]: 236.1 mg/L (≈ 475 µM)

Now from value to molecule:

- IC50 [3]: 11.5 µM
Structure (SMILES): Clc1ccc2c(c1)COC(c1c(-c3ccccc3)[nH]c3ccccc13)N2 (configuration not stated)

- inhibition [4]: 7.6%
Structure (SMILES): O=Cc1c(-c2ccccc2)[nH]c2ccccc12

- IC50 [3]: 11.5 µM
Structure (SMILES): Cc1[nH]c2ccccc2c1C1Nc2ccccc2CO1 (configuration not stated)

- Activity [5]: 49%
Structure (SMILES): O=C(N[C@@H](Cc1c[nH]c2ccccc12)C(=O)O)c1cccc(Cl)c1

- IC50 [3]: 11.5 µM
Structure (SMILES): Cc1ccc2c(c1)COC(c1c(-c3ccccc3)[nH]c3ccccc13)N2 (configuration not stated)

- IC50 [3]: 11.5 µM
Structure (SMILES): Clc1ccc2c(c1)NC(c1c[nH]c3ccccc13)OC2 (configuration not stated)

- IC50 [3]: 11.5 µM
Structure (SMILES): Cc1ccc2c(c1)COC(c1c(C)[nH]c3ccccc13)N2 (configuration not stated)

- IC50 [3]: 11.5 µM
Structure (SMILES): c1ccc2c(c1)COC(c1c[nH]c3ccccc13)N2 (configuration not stated)
